Here are results for 6 compounds from patent publication US20230285570A1, “THERAPEUTICALLY USEFUL CURE-PRO MOLECULES FOR E3 LIGASE MEDIATED DEGRADATION OF PROTEINS, AND METHODS OF MAKING AND USING THEM” (CORNELL UNIVERSITY, priority 2020, published 2023).

Common to all, as to format: cell-based
For experiment [1], the target named is T1, BRD4 (Homo sapiens, UniProt O60885). The experiment in a line: CURE-PRO-mediated BRD4 degradation in HCT116 cells, WES (ProteinSimple). Also noted: endogenous in cells. The conditions noted are these: 1 μM-10 μM each. How it is done: All cell lines were purchased from ATCC or DSMZ and grown at 37° C. with 5% CO2. Human HeLa cells were cultured in complete growth medium (Dulbecco's modified Eagle's medium (DMEM) supplemented with 10% FBS); MCF7 cells were cultured in complete growth medium (Dulbecco's modified Eagle's medium (DMEM) supplemented with 10% FBS and 0.01 mg/ml human recombinant insulin (Sigma Aldrich); Namalwa and Ramos cells were cultured in complete growth medium (RPMI 1640 medium supplemented with 10% FBS); HCT116 and HT29 cells were cultured in complete growth medium (McCoy's 5a Medium supplemented with 10% FBS). For cellular degradation of BRD4 studies cells were seeded in a 12-well plate at 70-80% confluency, allowed to attach overnight, and incubated with the indicated compounds for the indicated time. When indicated, a 15-minute pretreatment with 10 μM pomalidomide, 10 μM VHL298, 10 μM Nutlin3a, 1 μM MG-132 or 1 μM Carfilzomib was performed before the addition of CURE-PROs. For washout studies, after CURE-PRO treatment, media was aspirated and incubated with complete medium for the indicated time before lysis.
WES Simple analysis was performed on WES system (ProteinSimple-Biotechne) according to the manufacturer's instructions. Total protein concentrations of cell lysates were determined by the Pierce BCA kit (Thermo Fisher). 3 μL of 0.3 μg/μL of the protein lysate was loaded onto a 12- to 230-kDa WES assay plate (ProteinSimple) where 300 nL sample was withdrawn through a capillary, subjected to electrophoretic separation of proteins by size, and followed by the simultaneous, HRP-based detection of proteins using the Anti-Rabbit Detection Module (Proteinsimple: #DM-001). The electropherograms were checked then the automatic peak detection was manually corrected if it was required.
HCT116 cells (3×10^6) were treated for 24 hours with the compounds solubilized in DMSO. Compounds were added at 1 μM-10 μM each. Standardized protein samples were electrophoresed and imaged as described in the WES ProteinSimple section above. FIGS. 59, 60, and 61 depict the concentration-dependence of CURE-PRO-mediated BRD4 degradation using MDM2 ligands.
HCT116 cells (3×10^6) were treated for 24 hours with the compounds solubilized in DMSO. Compounds were added at 1 μM-10 μM each. Standardized protein samples were electrophoresed and imaged as described in the WES ProteinSimple section above. FIGS. 62 and 63 depict the concentration-dependence of CURE-PRO-mediated BRD4 degradation using MDM2 ligands.
HCT116 cells (3×10^6) were treated for 24 hours with the compounds solubilized in DMSO. CURE-PRO monomers were added at 10 μM each and the proteasomal inhibitors at 1 μM. Standardized protein samples were electrophoresed and imaged as described in the WES ProteinSimple section above. FIG. 68 depicts the dependence of the proteasome for CURE-PRO-mediated BRD4 degradation.

Experiment [2] has as its target T1, BRD4. The experiment in a line: Summary of BRD4 degradation by CURE-PRO pairs, estimated from Western Blot or WES. The conditions noted are these: for Degradation of BRD4, combination with CRBN ligand 8046: Table 1, aryl-boronic acid BRD4 ligand + 8046; for Degradation of BRD4, combination with CRBN ligand 8066: Table 1, aryl-boronic acid BRD4 ligand + 8066; for Degradation of BRD4, combination with MDM2 ligand 8314: Table 2, aryl-boronic acid BRD4 ligand + 8314; for Degradation of BRD4, combination with CRBN ligand 8047: Table 1, aryl-boronic acid BRD4 ligand + 8047. Details: endogenous in cells. The gist of the method:
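Degradation read-out from immunoblot with ECL, or WES capillary electrophoresis with HRP detection, of RIPA lysates. Cells (Namalwa, Ramos, HeLa, MCF7, HT29 or HCT116) were exposed to DMSO-solubilized compounds for 24 h; a check mark marks 30% to 70% or higher degradation.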

The target in experiment [3] is T1, BRD4. The experiment in a line: CURE-PRO-mediated BRD4 degradation in HeLa cells, Western blot. Details: endogenous in cells; host or cells: HeLa. The conditions noted are these: 24 h; for BRD4 expression: BRD monomer alone, HeLa, 1 nM-1 μM; for BRD4 degradation: 10 μM each. The gist of the method: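 HeLa cells (2.5×10^6) treated 24 h with DMSO-solubilized compounds, degrader pairs combined 1:1, at 1 nM-1 μM, 1-10 μM, 10 μM or 10 and 100 μM each depending on series. RIPA lysates (10-20 μg protein) run on SDS-PAGE and immunoblotted for BRD4 with ECL detection.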
For orientation: A western blot detects proteins with antibodies after separation by electrophoresis.

The test system of a further experiment is MV-4-11 cells. The experiment in a line: CellTiter-Glo cell viability, MV-4-11 cells. The method, then:
CellTiter-Glo® 2.0 Cell Viability Assay (Promega) was carried out following the manufacturer's recommendations. Cells were seeded at a density of 1000 cells/well in a white 96 well plates (Corning, #3917) in a total volume of 100 μl with respective monomers, combinations of BRD ligands together with E3 ligase ligands or vehicle control treatment. After a 72 h incubation, 100 ul of the CellTiter-Glo® substrate was added per well and luminescence was read on a Spectramax M5 (Molecular Devices). Dose-response curves were generated using Graphpad Prism software.
MV-4-11 cells (5×10^4) were treated for 24 hours with the sample compounds solubilized in DMSO. The compounds were added at 1 nM-100 μM each. Cellular viability was determined using the CellTiter-Glo® Luminescent Cell Viability Assay (Promega) described above. FIGS. 19-22 depict the CURE-PRO-mediated loss of cellular viability for BRD monomers (JQ1 derivatives comprising of catechol linkers), and CRBN ligand, 8049 (pomalidomide derivatives comprising boronic acid linkers) combined in a 1:1 ratio.
MV-4-11 cells (1×10^4) were treated for 72 hours with the compounds solubilized in DMSO. Compounds were added at 10 nM-100 μM each. Cellular viability was determined using the CellTiter-Glo® Luminescent Cell Viability Assay (Promega) described above. FIGS. 47-54 depict the CURE-PRO-mediated loss of cellular viability for BRD monomers (JQ1 derivatives comprising of boronic acid linkers), and CRBN ligands, 8046, 8047 and 8066 (pomalidomide derivatives comprising diol linkers) combined in a 1:1 ratio.
(In general: In ATP-based viability assays light output follows the ATP content of the culture.)

Where [4] appears, read: 1:1 with MDM2 ligand 8313, HCT116, 24 h.
Where [5] appears, read: 1:1 with MDM2 ligand 8314, HCT116, 24 h.
The mark [6] stands for this setting: co-treated 1:1 with CRBN ligand 8046, HeLa.
Where [7] appears, read: co-treated 1:1 with CRBN ligand 8066, HeLa.

Entries after “also recorded” stand apart in the source; their conditions may differ.

As to `COc1ccc2c(c1)C(c1ccc(Cl)cc1)=N[C@@H](CC(=O)NCCCCCNC(=O)c1cccc(B(O)O)c1)c1nnc(C)n1-2` [BRD-E8], the BRD4 degradation result is recorded as “had no effect on BRD4 protein levels” at BRD4 [1] (setting [4]), “caused partial loss of the BRD4 protein; also recorded: Degradation is observed” on BRD4 [1] (setting [5]), “causes degradation of BRD4; also recorded: Degradation is noted” at BRD4 [3] (setting [6]) and “causes degradation of BRD4; also recorded: Degradation is noted” on BRD4 [3] (setting [7]). Moreover, at BRD4 [2], the “Degradation of BRD4, combination with CRBN ligand 8046” value is listed as “√ (A black check mark indicates efficacy of 30% to 70% or higher protein degradation)”. Moreover, the “Degradation of BRD4, combination with CRBN ligand 8066” value at BRD4 [2] is reported as “√ (A black check mark indicates efficacy of 30% to 70% or higher protein degradation)”. In addition, the “Degradation of BRD4, combination with MDM2 ligand 8314” value (shortened to “Degradation … with MDM2 ligand 8314”) on BRD4 [2] is reported as “√ (A black check mark indicates efficacy of 30% to 70% or higher protein degradation)”. For the same compound, the “concentration-dependent BRD4 degradation” value at BRD4 [3] (1:1 with CRBN ligand 8046, HeLa, 1 nM-1 μM each) is “Degradation is observed at 100 nM and 1 μM”. For the same compound, the BRD4 expression result on BRD4 [3] is recorded as “no change in expression is observed”.
On to `COc1ccc2c(c1)C(c1ccc(Cl)cc1)=N[C@@H](CC(=O)NCCc1ccc(B(O)O)cc1)c1nnc(C)n1-2` [BRD-E14, (4-(2-(2-((4S)-6-(4-chlorophenyl)-8-methoxy-1-methyl-4H-benzo[f][1,2,4]triazolo[4,3-a][1,4]diazepin-4-yl)acetamido)ethyl)phenyl)boronic acid], for which the BRD4 degradation result was “had no effect on BRD4 protein levels” at BRD4 [1] (setting [4]); “caused partial loss of the BRD4 protein; also recorded: Degradation is observed” at BRD4 [1] (setting [5]); “causes degradation of BRD4; also recorded: Degradation is noted” on BRD4 [3] (co-treated 1:1 with CRBN ligand 8047, HeLa). Further, the “Degradation of BRD4, combination with CRBN ligand 8047” value (shortened to “Degradation … with CRBN ligand 8047”) at BRD4 [2] was “√ (A black check mark indicates efficacy of 30% to 70% or higher protein degradation)”. The “Degradation … with MDM2 ligand 8314” value at BRD4 [2] was “√ (A black check mark indicates efficacy of 30% to 70% or higher protein degradation)”. Besides, the “Degradation of BRD4, combination with VHL ligand 8305” value at BRD4 [2] (Table 3, aryl-boronic acid BRD4 ligand + 8305) was “√ (A black check mark indicates efficacy of 30% to 70% or higher protein degradation)”.
Consider `CCNC(=O)C[C@@H]1N=C(c2ccc(Cl)cc2)c2cc(OCCNC(=O)c3cccc(B(O)O)c3)ccc2-n2c(C)nnc21` [BRD-E21, (3-((2-(((4S)-6-(4-chlorophenyl)-4-(2-(ethylamino)-2-oxoethyl)-1-methyl-4H-benzo[f][1,2,4]triazolo[4,3-a][1,4]diazepin-8-yl)oxy)ethyl)carbamoyl)phenyl)boronic acid], for which the BRD4 degradation result on BRD4 [1] (setting [4]) was “had no effect on BRD4 protein levels”. Moreover, the BRD4 degradation entry at BRD4 [1] (setting [5]) is reported as “caused partial loss of the BRD4 protein; also recorded: Degradation is observed”. Moreover, on BRD4 [2], the “Degradation … with CRBN ligand 8047” value is “√ (A black check mark indicates efficacy of 30% to 70% or higher protein degradation)” and the “Degradation … with MDM2 ligand 8314” value is given as “√ (A black check mark indicates efficacy of 30% to 70% or higher protein degradation)”. The “concentration from which BRD4 degradation is observed” value on BRD4 [3] (1:1 with CRBN ligand 8047, HeLa, 1 nM-1 μM each) is reported as at least 10 nM. Also, the BRD4 expression entry on BRD4 [3] is “no change in expression is observed”.
`COc1ccc2c(c1)C(c1ccc(Cl)cc1)=N[C@@H](CC(=O)Nc1cccc(B(O)O)c1)c1nnc(C)n1-2` [BRD-E73, (3-(2-((4S)-6-(4-chlorophenyl)-8-methoxy-1-methyl-4H-benzo[f][1,2,4]triazolo[4,3-a][1,4]diazepin-4-yl)acetamido)phenyl)boronic acid]: the “loss of cellular viability (toxicity) versus monomers alone” value in the experiment on MV-4-11 cells (cotreated 1:1 with each of CRBN ligands 8046, 8047 and 8066, MV-4-11, 72 h, 10 nM-100 μM) was “reduced viability; also recorded: increased toxicity”.
For `CCNC(=O)C[C@@H]1N=C(c2ccc(Cl)cc2)c2cc(OCCCCCCNC(=O)c3ccc(B(O)O)cc3)ccc2-n2c(C)nnc21` [BRD-E79, (4-((6-(((4S)-6-(4-chlorophenyl)-4-(2-(ethylamino)-2-oxoethyl)-1-methyl-4H-benzo[f][1,2,4]triazolo[4,3-a][1,4]diazepin-8-yl)oxy)hexyl)carbamoyl)phenyl)boronic acid], the BRD4 degradation result at BRD4 [1] (setting [4]) was “caused BRD4 protein degradation at 1 and 10 μM; also recorded: Degradation of BRD4 is observed”; at BRD4 [1] (setting [5]) it was “no protein loss was observed”; on BRD4 [3] (setting [6]) it was “causes degradation of BRD4; also recorded: Degradation is noted”; on BRD4 [3] (setting [7]) it was “causes degradation of BRD4; also recorded: Degradation is noted”. Moreover, at BRD4 [2], the “Degradation of BRD4, combination with CRBN ligand 8046” value is given as “√ (A black check mark indicates efficacy of 30% to 70% or higher protein degradation)”. Moreover, on BRD4 [2], the “Degradation … with CRBN ligand 8047” value is on record as “√ (A black check mark indicates efficacy of 30% to 70% or higher protein degradation)”. Besides, the “Degradation of BRD4, combination with CRBN ligand 8066” value on BRD4 [2] is listed as “√ (A black check mark indicates efficacy of 30% to 70% or higher protein degradation)”. The “Degradation of BRD4, combination with MDM2 ligand 8313” value at BRD4 [2] (Table 2, aryl-boronic acid BRD4 ligand + 8313) is “√ (A black check mark indicates efficacy of 30% to 70% or higher protein degradation)”.
In the case of `COc1ccc2c(c1)C(c1ccc(Cl)cc1)=N[C@@H](CC(=O)NCCCCCNC(=O)c1cccc(O)c1O)c1nnc(C)n1-2` [BRD-N8, N-(5-(2-((4S)-6-(4-chlorophenyl)-8-methoxy-1-methyl-4H-benzo[f][1,2,4]triazolo[4,3-a][1,4]diazepin-4-yl)acetamido)pentyl)-2,3-dihydroxybenzamide], in the experiment with MV-4-11 cells (co-dosed 1:1 with CRBN ligand 8049, MV-4-11, 24 h, 1 nM-100 μM each), the “loss of cellular viability (toxicity)” value is “concentration-dependent loss in cellular viability; also recorded: increased toxicity”.
